Results: publication PMC8869358, “High-Throughput Chemical Screening and Structure-Based Models to Predict hERG Inhibition” (Biology, 2022)
Where a name gives a salt, the structure may show the parent alone.

Biological target: hERG (Homo sapiens, UniProt Q12809)
Experiment: cell-based
Conditions: (-LOG10(IC50), µM)

Chain of hERG (Q12809 whole entry): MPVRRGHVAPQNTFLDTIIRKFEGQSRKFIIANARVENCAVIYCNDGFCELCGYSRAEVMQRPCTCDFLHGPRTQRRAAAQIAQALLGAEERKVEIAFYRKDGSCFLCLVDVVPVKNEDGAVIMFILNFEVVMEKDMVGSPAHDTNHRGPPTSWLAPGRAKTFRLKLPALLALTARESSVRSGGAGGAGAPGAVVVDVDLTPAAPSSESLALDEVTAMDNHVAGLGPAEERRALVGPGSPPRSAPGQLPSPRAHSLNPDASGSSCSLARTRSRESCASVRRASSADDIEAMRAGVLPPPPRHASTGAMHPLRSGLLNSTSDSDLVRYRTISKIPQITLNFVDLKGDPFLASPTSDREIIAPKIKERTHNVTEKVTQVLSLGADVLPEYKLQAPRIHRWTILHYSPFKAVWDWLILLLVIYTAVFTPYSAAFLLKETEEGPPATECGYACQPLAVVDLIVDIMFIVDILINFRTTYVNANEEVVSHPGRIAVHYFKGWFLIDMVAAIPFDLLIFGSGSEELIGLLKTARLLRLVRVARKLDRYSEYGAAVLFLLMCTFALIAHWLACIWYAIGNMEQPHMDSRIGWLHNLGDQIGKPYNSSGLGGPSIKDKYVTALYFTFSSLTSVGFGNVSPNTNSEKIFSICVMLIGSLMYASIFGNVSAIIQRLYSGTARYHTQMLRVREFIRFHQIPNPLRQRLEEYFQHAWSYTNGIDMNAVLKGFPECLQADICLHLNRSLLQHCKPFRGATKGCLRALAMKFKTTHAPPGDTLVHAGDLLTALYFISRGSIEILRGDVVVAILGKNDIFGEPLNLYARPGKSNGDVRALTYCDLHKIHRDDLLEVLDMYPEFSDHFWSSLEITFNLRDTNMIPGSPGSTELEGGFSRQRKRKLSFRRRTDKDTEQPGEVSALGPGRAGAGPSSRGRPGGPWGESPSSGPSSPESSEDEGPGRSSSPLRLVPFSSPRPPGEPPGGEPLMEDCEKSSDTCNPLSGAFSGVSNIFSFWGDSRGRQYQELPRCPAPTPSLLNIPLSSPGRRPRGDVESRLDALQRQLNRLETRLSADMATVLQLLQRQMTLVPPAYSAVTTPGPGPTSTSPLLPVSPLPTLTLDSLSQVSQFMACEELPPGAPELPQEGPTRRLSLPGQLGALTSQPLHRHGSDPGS

| SMILES | IC50 |
| --- | --- |
| Cc1cccc(Oc2ccccc2)c1 [1-Methyl-3-phenoxybenzene] | 23.9 µM |
| O=C1Cc2ccccc2N1c1c(Cl)cccc1Cl [1-(2,6-Dichlorophenyl)-2-indolinone] | 21.9 µM |
| CN(C)CCOc1ccccc1Cc1ccccc1 [Phenyltoloxamine citrate] | 8.49 µM |
| CN1C(CSCC(F)(F)F)Nc2cc(Cl)c(S(N)(=O)=O)cc2S1(=O)=O (centres unmarked) [Polythiazide] | 19.7 µM |
| c1ccc(CSCc2ccccc2)cc1 [Benzyl sulfide] | 47 µM |
| CCCN(CC)CC1COC2(CCC(C(C)(C)C)CC2)O1 (centres unmarked) [Spiroxamine] | 34.7 µM |
| CCN1CCCC1CNC(=O)c1cc(S(N)(=O)=O)ccc1OC (centres unmarked) [Sulpiride] | 34.7 µM |
| CN(C)CCN(Cc1ccc(Cl)cc1)c1ccccn1 [Chloropyramine hydrochloride] | 2.39 µM |
| CCOCn1c(-c2ccc(Cl)cc2)c(C#N)c(Br)c1C(F)(F)F [Chlorfenapyr] | 15.5 µM |
| Oc1ccc(C(c2ccc(O)cc2)(C(F)(F)F)C(F)(F)F)cc1 [Bisphenol AF] | 43.4 µM |
| CC[C@]12CCCN3CCc4c(n(c5ccccc45)[C@@](O)(C(=O)OC)C1)[C@@H]32 [Vincamine] | 1.33 µM |
| OCC(c1ccc(Cl)cc1)c1ccc(Cl)cc1 [2,2-Bis(4-chlorophenyl)ethanol] | 49 µM |
| O=C(N[C@H]1N=C(c2ccccc2F)c2cccc3c2N(CC3)C1=O)c1cc2ccccc2[nH]1 [Pranazepide] | 7.86 µM |
| C=CCNc1nc(NCC=C)nc(N2CCN(C(c3ccc(F)cc3)c3ccc(F)cc3)CC2)n1 [Almitrine dimethanesulfonate] | 6.01 µM |
| CCCCCN(CCCCC)C(=O)C(CCC(=O)O)NC(=O)c1ccc(Cl)c(Cl)c1 (centres unmarked) [Lorglumide sodium] | 9.52 µM |
| CN1CCCN(C(c2ccccc2)c2ccc(Cl)cc2)CC1 (centres unmarked) [Homochlorcyclizine] | 1.83 µM |
| O=C1CCCCCCCCCCOCCCCO1 [12-Oxahexadecanolide] | 49 µM |
| Cc1cc2c3c(c1)C(c1ccccc1)=N[C@@H](NC(=O)c1ccncc1)C(=O)N3CC2 [CI-1018] | 25.5 µM |
| CC1COC(Cn2cncn2)(c2ccc(Oc3ccc(Cl)cc3)cc2Cl)O1 (centres unmarked) [Difenoconazole] | 22.7 µM |
| CCn1nc(Cc2ccccc2)cc1C1CCN(C[C@H]2C[C@H](N(C)[C@@H](C(=O)O)C(C)C)C[C@@H]2c2cccc(F)c2)CC1 [MK-578] | 20.3 µM |
| CCOC(=O)c1cn2nc(OP(=S)(OCC)OCC)cc2nc1C [Pyrazophos] | 51.9 µM |

| SMILES | IC50 |
| --- | --- |
| Cc1cc(C(C)(C)CC(C)(C)C)ccc1OCCOCC[N+](C)(C)Cc1ccccc1 [Methylbenzethonium chloride] | 0.756 µM |
| CCCC[P+](CCCC)(CCCC)CCCC [Tetrabutylphosphonium bromide] | 16 µM |
| O[Si](c1ccccc1)(c1ccccc1)c1ccccc1 [Triphenylsilanol] | 21.9 µM |
| CCOC(=O)c1ccc([C@H]2CC[C@H](NC[C@H](O)COc3ccc(O)c(NS(C)(=O)=O)c3)CC2)cc1 [SAR 150640] | 28.5 µM |
| CCCCCCC(C)Nc1ccc(Nc2ccccc2)cc1 (centres unmarked) [N-(1-Methylheptyl)-N'-phenyl-1,4-benzenediamine] | 34.7 µM |
| CCOC(=O)c1c(N)sc2c1CCN(Cc1ccccc1)C2 [Tinoridine] | 21.3 µM |
| CN1CCC(=C2c3ccccc3Sc3ccccc32)CC1 [Pimethixene maleate] | 9.89 µM |
| COP(=S)(OC)Oc1cc(Cl)c(I)cc1Cl [Iodenphos] | 45.3 µM |
| COc1ccc(C(=O)CC(=O)c2ccc(C(C)(C)C)cc2)cc1 [1-(4-tert-Butylphenyl)-3-(4-methoxyphenyl)propane-1,3-dione] | 21.3 µM |
| OC(c1ccc(Cl)cc1)(c1ccc(Cl)cc1)c1cccnc1 [Parinol] | 20.3 µM |
| ClC(Cl)=C(c1ccc(Cl)cc1)c1ccc(Cl)cc1 [p,p'-DDE] | 27.5 µM |
| CN1C(=O)N(c2ccccc2Br)Cc2cnc(Nc3ccc4c(c3)OCC(CO)O4)nc21 (centres unmarked) [PharmaGSID_48519] | 43.6 µM |
| C=C(C)CN(CC)c1c([N+](=O)[O-])cc(C(F)(F)F)cc1[N+](=O)[O-] [Ethalfluralin] | 36 µM |
| CCCCOC(=O)CC(CC(=O)OCCCC)(OC(C)=O)C(=O)OCCCC [Acetyl tributyl citrate] | 8.99 µM |
| Clc1ccccc1C(c1ccccc1)(c1ccccc1)n1ccnc1 [Clotrimazole] | 25.5 µM |
| COc1ccc2cc(S(=O)(=O)N[C@H](CC(=O)N[C@H](Cc3ccc(CN4[C@H](C)CCC[C@@H]4C)cc3)C(=O)N(C)C(C)C)c3ccc4c(c3)OCO4)ccc2c1 [SSR 240612] | 7.07 µM |
| Cl[C@H]1[C@H](Cl)[C@@H](Cl)[C@H](Cl)[C@@H](Cl)[C@H]1Cl [delta-Hexachlorocyclohexane] | 51.9 µM |
| CCCCC(CC)CN1CN(CC(CC)CCCC)CC(C)(N)C1 (centres unmarked) [Hexetidine] | 3.01 µM |
| CCOP(=S)(OCC)OC(Cl)C(Cl)(Cl)Cl (centres unmarked) [Chlorethoxyfos] | 25.5 µM |
| CCCCOCCOC(=O)COc1nc(Cl)c(Cl)cc1Cl [Triclopyr butotyl] | 34.7 µM |
| CCN(CC)Cc1nccn1-c1ccc([N+](=O)[O-])cc1C(=O)c1ccccc1Cl [Nizofenone fumarate] | 6.74 µM |

| SMILES | IC50 |
| --- | --- |
| O=C(CCS)OCC(COC(=O)CCS)(COC(=O)CCS)COC(=O)CCS [3-[(3-Sulfanylpropanoyl)oxy]-2,2-bis{[(3-sulfanylpropanoyl)oxy]methyl}propyl 3-sulfanylpropanoate] | 33.4 µM |
| C#CCOS(=O)OC1CCCCC1Oc1ccc(C(C)(C)C)cc1 (centres unmarked) [Propargite] | 20.7 µM |
| Cc1[nH]cnc1C[C@H]1CCc2c(C)c3ccccc3n2C1=O [Fabesetron hydrochloride] | 7.01 µM |
| Cc1ccc(C=C2C(=O)C3(C)CCC2C3(C)C)cc1 (centres unmarked) [Enzacamene] | 30.7 µM |
| CCOP(=S)(Oc1ccc([N+](=O)[O-])cc1)c1ccccc1 (centres unmarked) [EPN] | 0.776 µM |
| O=C(COc1ccc(Cl)cc1)N1CCN(Cc2ccc3c(c2)OCO3)CC1 [Fipexide hydrochloride] | 16.1 µM |
| CCN(CC)CCOC(=O)C(O)(c1ccccc1)c1ccccc1 [Benactyzine] | 11.5 µM |
| CCCC(=O)O[C@]1(C(=O)CCl)[C@@H](C)C[C@H]2[C@@H]3CCC4=CC(=O)C=C[C@]4(C)[C@@]3(F)C(=O)C[C@@]21C [Clobetasone butyrate] | 8.01 µM |
| CCN(CC)c1nc(C)cc(OP(=S)(OC)OC)n1 [Pirimiphos-methyl] | 50.9 µM |
| Oc1ccc(Cl)cc1Cc1cc(Cl)ccc1O [Dichlorophen] | 27 µM |
| CCCCCCCC(=O)Oc1c(Br)cc(C#N)cc1Br [Bromoxynil octanoate] | 26.4 µM |
| CCCCCCCCCCCCCCCCCC[N+](C)(C)C [N,N,N-Trimethyloctadecan-1-aminium chloride] | 17.4 µM |
| COc1ccc(S(=O)(=O)N2C(=O)[C@@](c3ccccc3OC)(N3C[C@H](O)C[C@H]3C(=O)N(C)C)c3cc(Cl)ccc32)c(OC)c1 [Nelivaptan] | 54.9 µM |
| CC[N+](CC)(CC)CCOC(=O)C(C1CCCC1)C1CCCC1 [Diponium bromide] | 9.52 µM |
| CCCCCC(C)OC(=O)COc1ccc(Cl)c2cccnc12 (centres unmarked) [Cloquintocet-mexyl] | 16.1 µM |
| CC(C)(C)c1cc([N+](=O)[O-])cc(C(C)(C)C)c1O [2,6-Di-tert-butyl-4-nitrophenol] | 38.9 µM |
| OC(C#CCN1CCCC1)(c1ccccc1)c1ccccc1 [Butinoline] | 19 µM |
| CCOC(=O)c1nc(C(Cl)(Cl)Cl)n(-c2ccc(Cl)cc2Cl)n1 [Fenchlorazole-ethyl] | 49 µM |
| CC(O)(c1ccc(Cl)cc1)c1ccc(Cl)cc1 [Chlorfenethol] | 46.2 µM |
| C=C(C)C(=O)OCC(CC)(COC(=O)C(=C)C)COC(=O)C(=C)C [1,1,1-Trimethylolpropane trimethacrylate] | 30.2 µM |
| O=C(N[C@@H](c1ccccc1)[C@@H]1CCCCN1)c1cccc(C(F)(F)F)c1Cl [SSR504734] | 50.9 µM |

| SMILES | IC50 |
| --- | --- |
| CN(c1nccc(=O)[nH]1)C1CCN(c2nc3ccccc3n2Cc2ccc(F)cc2)CC1 [Mizolastine] | 2.21 µM |
| CN(C)C(=O)NC1(c2ccccc2)CCN(CCC[C@]2(c3ccc(Cl)c(Cl)c3)CCCN(C(=O)c3ccccc3)C2)CC1 [SSR146977] | 1.71 µM |
| c1ccc(CN(CC2=NCCN2)c2ccccc2)cc1 [Antazoline hydrochloride] | 15.7 µM |
| O=C(c1ccccc1)C(Cl)Cl [2,2-Dichloro-1-phenylethanone] | 36 µM |
| CCCCOCCOC(=O)COc1cc(Cl)c(Cl)cc1Cl [2,4,5-T-butotyl] | 23.2 µM |
| CN1C2CCC(C)(C)C1CC(OC(=O)C(O)(c1cccs1)c1cccs1)C2 (centres unmarked) [Mazaticol] | 21.3 µM |
| CCc1nn(C)c(C(=O)NCc2ccc(C(C)(C)C)cc2)c1Cl [Tebufenpyrad] | 24.5 µM |
| COC(=O)C(C)Oc1ccc(Oc2ccc(Cl)cc2Cl)cc1 (racemic) [(+-)-Diclofop-methyl] | 46.2 µM |
| N#Cc1sc2c(=O)c3ccccc3c(=O)c=2sc1C#N [Dithianon] | 30.9 µM |
| CCOC(CN1CCN(CC(C)C(=O)c2ccccc2)CC1)c1ccccc1 (centres unmarked) [Eprazinone dihydrochloride] | 9.28 µM |
| CC(C)(C)CC(C)(C)c1ccc(O)c(-n2nc3ccccc3n2)c1 [Octrizole] | 14.5 µM |
| CC(=O)OCCN(CCOC(C)=O)c1ccc(/N=N/c2ccc([N+](=O)[O-])cc2C#N)cc1 [Disperse Red 82] | 24.5 µM |
| CCCCCCCCCCCCCC[N+](C)(C)Cc1ccccc1 [Benzyldimethyltetradecylammonium chloride dihydrate] | 2.05 µM |
| CCCCOCCOC(=O)c1ccccc1C(=O)OCCOCCCC [Bis(2-butoxyethyl) phthalate] | 20.2 µM |
| COc1ccc2c(c1OC)C(=O)O[C@@H]2[C@H]1c2cc3c(cc2CCN1C)OCO3 [Hydrastine] | 20.8 µM |
| CCCCCCCCCCn1cc[n+](CCCCCCCCCC)c1C [1,3-Didecyl-2-methylimidazolium chloride] | 0.51 µM |
| CCCCCCCCCCCCCC[N+](C)(C)C [Tetradonium bromide] | 18.3 µM |
| CCCCC(CC)C(=O)OCCOCCOCCOCCOC(=O)C(CC)CCCC (centres unmarked) [Tetraethylene glycol di(2-ethylhexanoate)] | 11 µM |
| CCOC(=O)NNc1ccc(N(CC)CC(C)O)nn1 (centres unmarked) [Cadralazine] | 23.9 µM |
| COc1cc(C(=O)OCCCN2CCCN(CCCOC(=O)c3cc(OC)c(OC)c(OC)c3)CC2)cc(OC)c1OC [Dilazep] | 6.01 µM |
